Here are results for 15 compounds from patent US9221822B2, “Thiazolopyrimidine modulators as immunosuppressive agents” (Katholieke Universiteit Leuven, K.U.Leuven R&D, priority 2009, dated 2015).

As usually defined, the IC50 is the point on the concentration scale where inhibition reaches its midpoint. Lower therefore signals higher potency.

The first experiment concerns Human peripheral blood mononuclear cells (PBMCs) as Responder cells, RPMI 1788 Stimulator cells. In words: Mixed Lymphocyte Reaction (MLR) test. The following applies: Homo sapiens, RPMI-1788, lowest concentration giving 50% inhibition of the MLR; 6 days coculture, 3H-thymidine incorporation. It counts as cell-based. Put shortly: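 Proliferation was read as cpm after a 1 μCi ^3H-thymidine pulse on day 5 and harvest 18 h later, then expressed as % inhibition relative to an MLR without compound. The 6-day triplicate cocultures combined 0.12×10^6 Ficoll-isolated human PBMCs with 0.045×10^6 mitomycin C-inactivated RPMI 1788 cells in RPMI 1640 with 10% FCS.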
(Uptake of a labelled nucleoside into DNA is a usual measure of proliferation.)
Compound `CN(C(=O)CN1CCN(c2nc(N)nc3[nH]c(-c4ccc(F)cc4)nc23)CC1)c1ccccc1` [Example 413, 2-(4-(2-amino-8-(4-fluorophenyl)-9H-purin-6-yl)piperazin-1-yl)-N-methyl-N-phenylacetamide] showed an IC50 above 10 µM.
Still for that read-out and setting: to `Nc1nc(N2CCN(c3ccc(Cl)cc3)CC2)c2nc(-c3ccc(F)cc3)[nH]c2n1` [Example 414, 6-(4-(4-chlorophenyl)piperazin-1-yl)-8-(4-fluorophenyl)-9H-purin-2-amine] belongs 3.87 µM; to `Nc1nc(N2CCN(c3ccc(F)cc3)CC2)c2nc(-c3ccc(F)cc3)[nH]c2n1` [Example 415, 8-(4-fluorophenyl)-6-(4-(4-fluorophenyl)piperazin-1-yl)-9H-purin-2-amine], 4.16 µM.
The same measure, in the same setting: to `Nc1nc(N2CCN(CC(=O)Nc3ccccn3)CC2)c2nc(-c3ccc(F)cc3)[nH]c2n1` [Example 416, 2-(4-(2-amino-8-(4-fluorophenyl)-9H-purin-6-yl)piperazin-1-yl)-N-(pyridin-2-yl)acetamide] belongs 5.76 µM.
In turn, `Nc1nc(N2CCN(CC(=O)Nc3nccs3)CC2)c2nc(-c3ccc(F)cc3)[nH]c2n1` [Example 417, 2-(4-(2-amino-8-(4-fluorophenyl)-9H-purin-6-yl)piperazin-1-yl)-N-(thiazol-2-yl)acetamide] showed a half-maximal inhibitory concentration (IC50) above 10 µM.
Same read-out and setting: for `Nc1nc(N2CCN(Cc3ccc(F)cc3)CC2)c2nc(-c3ccc(F)cc3)[nH]c2n1` [Example 418, 6-(4-(4-fluorobenzyl)piperazin-1-yl)-8-(4-fluorophenyl)-9H-purin-2-amine] the value was 9.86 µM; for `Nc1nc(N2CCCN(C(=O)COc3ccc(Cl)cc3)CC2)c2nc(-c3ccc(F)cc3)[nH]c2n1` [Example 421, 1-(4-(2-amino-8-(4-fluorophenyl)-9H-purin-6-yl)-1,4-diazepan-1-yl)-2-(4-chlorophenoxy)ethanone], 3.71 µM.
Still for that read-out and setting: for `Cc1cccc(NC(=O)N2CCCN(c3nc(N)nc4[nH]c(-c5ccc(F)cc5)nc34)CC2)c1` [Example 422, 4-(2-amino-8-(4-fluorophenyl)-9H-purin-6-yl)-N-m-tolyl-1,4-diazepane-1-carboxamide] the value was 1.18 µM; for `CSc1nc2c(N3CCN(C(=O)COc4ccc(Cl)cc4)CC3)nc(N)nc2[nH]1` [Example 424, 1-(4-(2-amino-8-(methylthio)-9H-purin-6-yl)piperazin-1-yl)-2-(4-chlorophenoxy)ethanone], 0.61 µM.
`CCCSc1nc2c(N3CCN(C(=O)COc4ccc(Cl)cc4)CC3)nc(N)nc2[nH]1` [Example 425, 1-(4-(2-amino-8-(propylthio)-9H-purin-6-yl)piperazin-1-yl)-2-(4-chlorophenoxy)ethanone]: the midpoint of inhibition, the IC50, lay at 1.02 µM.
For `Nc1nc(N2CCN(C(=O)COc3ccc(Cl)cc3)CC2)c2nc(SCc3ccccc3)[nH]c2n1` [Example 426, 1-(4-(2-amino-8-(benzylthio)-9H-purin-6-yl)piperazin-1-yl)-2-(4-chlorophenoxy)ethanone], the concentration for half-maximal inhibition (IC50) is 3.28 µM.
Consider `Nc1nc(N2CCN(C(=O)COc3ccc(Cl)cc3)CC2)c2nc(SCCc3ccccc3)[nH]c2n1` [Example 427, 1-(4-(2-amino-8-(phenethylthio)-9H-purin-6-yl)piperazin-1-yl)-2-(4-chlorophenoxy)ethanone], for which the IC50 is above 10 µM.
Same read-out and setting: for `CSc1nc2c(N3CCN(C(=O)COc4ccc(Cl)cc4)CC3)nc(N)nc2n1C` [Example 428, 1-(4-(2-amino-9-methyl-8-(methylthio)-9H-purin-6-yl)piperazin-1-yl)-2-(4-chlorophenoxy)ethanone] the value was 0.3 µM; for `Nc1nc(N2CCN(C(=O)COc3ccc(Cl)cc3)CC2)c2nc(SC3CCCC3)[nH]c2n1` [Example 429, 1-(4-(2-amino-8-(cyclopentylthio)-9H-purin-6-yl)piperazin-1-yl)-2-(4-chlorophenoxy)ethanone], 0.51 µM.

The experiment is the same for the next values; noted with them: lowest concentration giving 50% inhibition of the MLR; 6 days coculture, 3H-thymidine incorporation.
In turn, `Nc1nc(N2CCN(c3ccncc3)CC2)c2nc(-c3ccc(F)cc3)[nH]c2n1` [Example 419] had an IC50 above 10 µM.
